Experimental data taken from PMC9996706, “A curcumin direct protein biosensor for cell‐free prototyping” (Engineering Biology, 2022).

Biological target: T1, EcCurA (E. coli curcumin reductase, double bond reductase) (Escherichia coli, UniProt P76113)
T1 construct: gene curA
T1 sequence (P76113 1-345): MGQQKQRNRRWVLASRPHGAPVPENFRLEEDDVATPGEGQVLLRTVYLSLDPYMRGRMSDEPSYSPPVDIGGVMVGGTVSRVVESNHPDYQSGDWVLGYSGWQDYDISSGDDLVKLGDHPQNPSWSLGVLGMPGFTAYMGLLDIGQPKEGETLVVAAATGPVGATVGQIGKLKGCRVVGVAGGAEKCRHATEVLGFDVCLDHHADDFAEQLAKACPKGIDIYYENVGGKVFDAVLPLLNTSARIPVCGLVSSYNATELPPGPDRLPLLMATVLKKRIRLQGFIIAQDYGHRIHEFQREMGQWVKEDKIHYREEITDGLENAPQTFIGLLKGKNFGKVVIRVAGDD
Assay: fluorescence titration
Type: binding

COc1cc(/C=C/C(=O)CC(=O)/C=C/c2ccc(O)c(OC)c2)ccc1O [curcumin]
Kd: 8.39 µM
